Experiment: in vitro
Format: in vitro ADME
Details: human liver microsomes, 0.5 mg/mL microsomal protein, 1 mM NADPH, 37° C., N=1; for half-life: both sexes
Protocol: The liver microsomes stability of compounds of Examples 1, 4 and 5 were compared with Teneligliptin.
The metabolic stability of compounds of the invention was tested using pooled liver microsomes prepared from mixed-gender humans, with 1 mM NADPH. The samples were analyzed using an LTQ-Orbitrap XL mass spectrometer. HRMS was used to determine the peak area response ratio (peak area corresponding to test compound or control divided by that of an analytical internal standard) without running a standard curve. HRMS scan was performed in an appropriate m/z range in order to detect all plausible metabolites.
The assay was run with a single incubation (N=1). Incubated test compounds at 37° C. in a buffer solution containing 0.5 mg/mL microsomal protein. Initiated the reaction by adding cofactors, sampling at 0, 10, 20, 30, and 60 minutes. Incubated positive control (5 μM testosterone) in parallel and sampling at 0, 5 10, and 30 minutes.
The control compound testosterone was run in parallel to verify the enzymatic activity of the microsomes. After the final time point, fluorimetry was used to confirm the addition of NADPH to the reaction mixture. T1/2 of control met the internal acceptance criteria.
Column: Thermo BDS Hypersil C18 30×2.0 mm, 3 μm, with guard column M.P. Buffer: 25 mM ammonium formate buffer, pH 3.5 Aqueous Reservoir (A): 90% water, 10% buffer Organic Reservoir (B): 90% acetonitrile, 10% buffer

## [2H]C1([2H])CSC([2H])([2H])N1C(=O)C1CC(N2CCN(c3cc(C)nn3-c3ccccc3)CC2)CN1 [Example 1, ((2S,4S)-4-(4-(3-Methyl-1-phenyl-1H-pyrazol-5-yl)piperazin-1-yl)pyrrolidin-2-yl)(2,2,4,4-D4-thiazolidin-3-yl)methanone]
  half-life: > 1 h
  Percentage Remaining 0 min: 100%
  Percentage Remaining 10 min: 92%
  Percentage Remaining 20 min: 85%
  Percentage Remaining 30 min: 70%
  Percentage Remaining 60 min: 60%

## [2H]c1ccc(-n2nc(C)cc2N2CCN([C@@H]3CN[C@H](C(=O)N4CCSC4)C3)CC2)cc1 [Example 4, ((2S,4S)-4-(4-(1-(4-D-Phenyl)-3-methyl-1H-pyrazol-5-yl)piperazin-1-yl)pyrrolidin-2-yl)(thiazolidin-3-yl)methanone]
  half-life: > 1 h
  Percentage Remaining 0 min: 100%
  Percentage Remaining 10 min: 95%
  Percentage Remaining 20 min: 87%
  Percentage Remaining 30 min: 75%
  Percentage Remaining 60 min: 65%

## [2H][C@@]1(N2CCN(c3cc(C)nn3-c3ccccc3)CC2)CN[C@H](C(=O)N2CCSC2)C1 [Example 5]
  half-life: > 1 h
  Percentage Remaining 0 min: 100%
  Percentage Remaining 10 min: 90%
  Percentage Remaining 20 min: 87%
  Percentage Remaining 30 min: 70%
  Percentage Remaining 60 min: 60%

## Cc1cc(N2CCN([C@@H]3CN[C@H](C(=O)N4CCSC4)C3)CC2)n(-c2ccccc2)n1 [Teneligliptin, ((2S,4S)-4-(4-(3-methyl-1-phenyl-1H-pyrazol-5-yl)piperazin-1-yl)pyrrolidin-2-yl)(thiazolidin-3-yl)methanone, reference compound]
  half-life: > 1 h
  Percentage Remaining 0 min: 100%
  Percentage Remaining 10 min: 90%
  Percentage Remaining 20 min: 85%
  Percentage Remaining 30 min: 65%
  Percentage Remaining 60 min: 55%
